# Laboratory results as given in patent publication US4112082A (priority 1975, dated 1978).
# Legend:
# [1] = test system: spider mites (Tetrantychus strain), Normal Strain; conditions: in vivo
# [2] = test system: spider mites (Tetrantychus strain), Resistant Strain; conditions: in vivo
# mice = conditions: mouse, in vivo, sc; cited from earlier work
smiles,measurement,setting,value
CCOC(=O)CC(SP(=S)(OC)OC)C(=O)OCC (stereo not drawn) [malathion],"LD50, Normal Strain",[1],50 μg/8 cm^2
same,"LD50, Resistant Strain",[2],40 μg/8 cm^2
CN(C)C(=O)Oc1cccc([N+](C)(C)C)c1 [neostigmine],LD50 to mice,mice,0.42 mg/kg
